A short description of series [1]: Urinary excretion of GP531 after oral dosing in rat (relative/absolute bioavailability). Format: in vivo. Here is the method: Two separate studies were conducted in the rat using the free base and/or the water soluble hydrochloride salt of Formula Va. In the first study, equimolar doses of GP531 (20 mg/kg) were administered orally in aqueous solution to separate groups (n=3) of rats as GP531 tartrate or Formula Va hydrochloride. […] Cmax increased 6-fold and AUC over 0-4 hr increased 4-fold. In a subsequent study, using the same equimolar doses of GP531 tartrate and prodrug, the relative bioavailability of GP531 was estimated in a group of rats (n=4) by comparison of the amount of GP531 excreted in urine after dosing.

Series [2] can be described thus: Octanol:water partition coefficient. The settings on record: read-out: Octanol: water partition coefficient (log P). In kind it is physicochemical. An excerpt:
Administering a better absorbed more lipophilic prodrug, which is subsequently hydrolysed to GP531, achieves an increase in the systemic availability of GP531.

As to `CC(C)(C)C(=O)O[C@@H]1[C@H](OC(=O)C(C)(C)C)[C@@H](CNCc2ccccc2)O[C@H]1n1cnc(C(N)=O)c1N` [Formula Va], the “GP531 bioavailability, free base vs hydrochloride salt of the prodrug” value in series [1] is listed as “no significant difference”. Besides, the logP in series [2] turned out to be 3.31.

Source of the values: patent US9492468B2, “Methods and compositions for treatment of acute heart failure” (PERICOR THERAPEUTICS, INC., priority 2008, dated 2016).
